# Assay results taken from ChEMBL document CHEMBL1201862, “PubChem BioAssay data set” (2004).
# Calls of active or inactive are those of the source.
# Columns and labels:
# HEK293 = experiment: inhibitors of LMP1-driven NF-kB reporter, dose response, cell-based, HEK293, luciferase, cherry-pick (AID 588343); format: functional; settings: Homo sapiens
# [1] = target: Latent membrane protein 1 (Human herpesvirus 4 (strain B95-8), UniProt P03230); experiment: TES1-eGFP NF-kB reporter inhibition versus Tet-On dsRED, dose response, selectivity assay for LMP1 NF-kB inhibitor project, imaging, HEK293T, dual-color eGFP/dsRED, cherry-picks (AID 588398); format: functional, cell-based
# [2] = Shn3 3'UTR reporter inhibitors, dose response, cell-based, Clone20 osteoblasts, firefly luciferase, cherry-picked (AID 624132); format: functional;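 also: firefly luciferase luminescence from reporter carrying the Shn3 3'UTR in osteoblasts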
# [3] = HepG2 cell cytotoxicity, dose response, cytotoxicity control for Shn3 inhibitor project, CellTiter-Glo, cherry-picked (AID 624134); format: functional, cell-based
# [4] = control 3'UTR Renilla luciferase suppression, dose response, counter-screen for Shn3 inhibitor project, cell-based, Clone20-Shn3RL, cherry-picked (AID 624133); format: functional
# [5] = target: COUP transcription factor 2 (Homo sapiens, UniProt P24468); experiment: Luminescence-based cell-based high throughput dose response assay to identify inhibitors of COUP-TFII (NR2F2).; format: functional;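 also: HEK293 cells transiently cotransfected with COUP-TFII expression vector and reporter; luciferase reporter luminescence driven by COUP-TFII from the pX2-168 reporter plasmid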
# [6] = target: T1, RNA-binding protein pos-1 (Caenorhabditis elegans, UniProt G5EF15); experiment: inhibitors of POS-1/mex-3 RNA binding, dose response, biochemical, fluorescence polarization (AID 1964);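 also: purified POS-1 fused to maltose binding protein made in E. coli; potency of compounds blocking POS-1 binding to fluorescent RNA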
# T1 sequence (G5EF15 whole entry): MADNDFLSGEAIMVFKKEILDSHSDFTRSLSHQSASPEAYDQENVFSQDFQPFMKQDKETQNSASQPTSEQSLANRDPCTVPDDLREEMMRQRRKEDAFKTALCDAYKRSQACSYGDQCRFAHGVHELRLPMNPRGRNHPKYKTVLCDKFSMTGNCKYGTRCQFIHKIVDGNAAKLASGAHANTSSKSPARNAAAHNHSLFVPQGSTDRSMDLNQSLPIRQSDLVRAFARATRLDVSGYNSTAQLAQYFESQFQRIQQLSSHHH
# [7] = target: T2, Zinc finger protein mex-5 (Caenorhabditis elegans, UniProt Q9XUB2); experiment: MEX-5/TCR-2 RNA interaction inhibitors, dose response, biochemical, C. elegans, fluorescence polarization (AID 1960)
# T2 sequence (Q9XUB2 whole entry): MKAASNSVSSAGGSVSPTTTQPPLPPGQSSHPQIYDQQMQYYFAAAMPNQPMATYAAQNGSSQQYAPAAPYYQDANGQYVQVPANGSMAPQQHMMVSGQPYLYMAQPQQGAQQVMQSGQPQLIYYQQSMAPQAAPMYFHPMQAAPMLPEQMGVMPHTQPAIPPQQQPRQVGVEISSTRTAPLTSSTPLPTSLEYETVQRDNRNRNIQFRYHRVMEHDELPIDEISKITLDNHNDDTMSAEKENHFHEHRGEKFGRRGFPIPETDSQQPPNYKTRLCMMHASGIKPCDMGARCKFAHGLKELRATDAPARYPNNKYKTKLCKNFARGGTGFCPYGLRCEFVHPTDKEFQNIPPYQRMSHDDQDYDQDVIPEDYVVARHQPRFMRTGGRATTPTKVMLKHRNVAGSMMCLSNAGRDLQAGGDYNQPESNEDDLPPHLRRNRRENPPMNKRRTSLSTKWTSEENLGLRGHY
# [8] = target: T3, Endoribonuclease toxin MazF (Escherichia coli K-12, UniProt P0AE70); experiment: MazF endoribonuclease activators, SAR follow-up, biochemical, fluorescence, single-stranded RNA substrate (AID 588603); format: functional
# T3 sequence (P0AE70 whole entry): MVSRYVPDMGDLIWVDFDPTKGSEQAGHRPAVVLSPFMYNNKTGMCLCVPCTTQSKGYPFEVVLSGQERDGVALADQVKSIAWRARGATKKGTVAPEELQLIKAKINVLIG
# [9] = target: T3, Endoribonuclease toxin MazF; experiment: MazF toxin RNase activators, dose response, biochemical, fluorescence, single-stranded RNA substrate, uHTS hits (AID 588481); format: functional
# MEF = experiment: SAR analysis of small molecule cytotoxicity of MazEF TA System activators in embryonic fibroblast (MEF) cells. [Related pubchem assays (depositor defined):AID504720, AID504743]; format: functional; settings: Mus musculus
# [10] = target: T3, Endoribonuclease toxin MazF; experiment: SAR analysis of small molecule activators of the MazEF TA System via a fluorescence-based single-stranded RNase assay counterscreen. [Related pubchem assays (depositor defined):AID504720, AID504743]; format: functional
# [11] = target: T3, Endoribonuclease toxin MazF; experiment: fluorescent RNA oligo signal without MazF, dose response, counter-screen for MazEF activator project, biochemical, fluorescence, single-stranded RNase substrate (AID 588502); format: functional
# Genome polyprotein = Genome polyprotein (dengue virus type 2, UniProt P29990); experiment: Dengue-2 NS5 methyltransferase inhibitors, primary screen, biochemical, confirmation dose response (AID 588689); format: functional
# [12] = target: T4, Sentrin-specific protease 8 (Homo sapiens, UniProt Q96LD8); experiment: SENP8 protease inhibitors, SAR follow-up, biochemical, luminescence (AID 504501); format: functional
# T4 sequence (Q96LD8 whole entry): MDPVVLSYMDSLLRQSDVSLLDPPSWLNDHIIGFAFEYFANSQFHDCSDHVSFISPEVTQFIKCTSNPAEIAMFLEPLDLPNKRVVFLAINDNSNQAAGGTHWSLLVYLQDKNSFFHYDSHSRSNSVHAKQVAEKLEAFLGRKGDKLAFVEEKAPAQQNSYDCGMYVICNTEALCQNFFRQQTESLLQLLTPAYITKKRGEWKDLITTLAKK
# Caspase-3 [13] = target: T5, Caspase-3 (Homo sapiens, UniProt P42574); experiment: caspase-3 inhibitors as off-family protease, SAR follow-up, selectivity assay for SENP protease inhibitor project, biochemical, luminescence, set 2 (AID 588599); format: functional
# T5 sequence (P42574 whole entry): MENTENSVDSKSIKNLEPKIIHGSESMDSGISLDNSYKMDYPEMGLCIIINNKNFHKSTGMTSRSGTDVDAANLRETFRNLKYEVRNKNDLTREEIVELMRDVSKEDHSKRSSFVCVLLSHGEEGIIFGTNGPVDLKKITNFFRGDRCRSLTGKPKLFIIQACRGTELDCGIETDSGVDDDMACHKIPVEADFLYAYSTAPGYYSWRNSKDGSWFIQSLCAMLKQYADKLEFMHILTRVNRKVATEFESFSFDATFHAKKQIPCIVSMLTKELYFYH
# [14] = target: T4, Sentrin-specific protease 8; experiment: SENP8 protease inhibitors, SAR follow-up, biochemical, luminescence, set 2 (AID 588601); format: functional
# Caspase-3 [15] = target: T5, Caspase-3; experiment: SAR Analysis of small molecule inhibitors of Sentrin-specific proteases (SENPs) using a Caspase-3 Selectivity assay. [Related pubchem assays (depositor defined):AID2540, AID2599, AID434973, AID489001]; format: functional
# [16] = target: T6, Sentrin-specific protease 7 (Homo sapiens, UniProt Q9BQF6); experiment: SENP7 protease inhibitors, SAR follow-up, biochemical, luminescence, set 2 (AID 588600); format: functional
# T6 sequence (Q9BQF6 whole entry): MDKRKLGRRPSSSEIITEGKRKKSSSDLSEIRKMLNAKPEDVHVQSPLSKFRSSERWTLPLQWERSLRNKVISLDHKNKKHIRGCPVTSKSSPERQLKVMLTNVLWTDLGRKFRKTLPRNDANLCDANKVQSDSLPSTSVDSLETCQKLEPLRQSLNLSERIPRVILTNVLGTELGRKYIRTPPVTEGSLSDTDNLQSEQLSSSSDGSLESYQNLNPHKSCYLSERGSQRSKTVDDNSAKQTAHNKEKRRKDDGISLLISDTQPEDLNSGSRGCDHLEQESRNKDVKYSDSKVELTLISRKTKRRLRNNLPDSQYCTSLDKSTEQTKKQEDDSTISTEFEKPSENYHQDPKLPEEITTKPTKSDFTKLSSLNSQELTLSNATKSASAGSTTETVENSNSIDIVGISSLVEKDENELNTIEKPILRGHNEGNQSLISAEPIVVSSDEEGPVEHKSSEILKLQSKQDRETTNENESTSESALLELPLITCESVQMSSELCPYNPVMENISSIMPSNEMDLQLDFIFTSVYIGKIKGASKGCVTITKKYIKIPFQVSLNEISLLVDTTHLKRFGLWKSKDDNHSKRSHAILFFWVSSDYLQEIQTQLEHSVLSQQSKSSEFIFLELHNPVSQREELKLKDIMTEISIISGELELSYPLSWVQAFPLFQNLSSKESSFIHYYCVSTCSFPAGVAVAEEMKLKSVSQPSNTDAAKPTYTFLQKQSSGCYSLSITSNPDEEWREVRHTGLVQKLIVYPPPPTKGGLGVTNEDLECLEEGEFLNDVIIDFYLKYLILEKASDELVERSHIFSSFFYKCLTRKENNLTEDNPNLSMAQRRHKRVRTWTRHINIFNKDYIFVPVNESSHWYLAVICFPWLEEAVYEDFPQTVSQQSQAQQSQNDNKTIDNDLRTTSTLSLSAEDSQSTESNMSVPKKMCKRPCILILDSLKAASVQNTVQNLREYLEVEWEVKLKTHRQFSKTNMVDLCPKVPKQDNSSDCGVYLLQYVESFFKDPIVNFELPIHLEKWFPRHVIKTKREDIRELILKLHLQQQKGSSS
# [17] = target: T7, Sentrin-specific protease 6 (Homo sapiens, UniProt Q9GZR1); experiment: SAR Analysis of small molecule inhibitors of Sentrin-specific protease 6 (SENP6) using a Luminescent assay. [Related pubchem assays (depositor defined):AID2582, AID2599]; format: functional
# T7 sequence (Q9GZR1 whole entry): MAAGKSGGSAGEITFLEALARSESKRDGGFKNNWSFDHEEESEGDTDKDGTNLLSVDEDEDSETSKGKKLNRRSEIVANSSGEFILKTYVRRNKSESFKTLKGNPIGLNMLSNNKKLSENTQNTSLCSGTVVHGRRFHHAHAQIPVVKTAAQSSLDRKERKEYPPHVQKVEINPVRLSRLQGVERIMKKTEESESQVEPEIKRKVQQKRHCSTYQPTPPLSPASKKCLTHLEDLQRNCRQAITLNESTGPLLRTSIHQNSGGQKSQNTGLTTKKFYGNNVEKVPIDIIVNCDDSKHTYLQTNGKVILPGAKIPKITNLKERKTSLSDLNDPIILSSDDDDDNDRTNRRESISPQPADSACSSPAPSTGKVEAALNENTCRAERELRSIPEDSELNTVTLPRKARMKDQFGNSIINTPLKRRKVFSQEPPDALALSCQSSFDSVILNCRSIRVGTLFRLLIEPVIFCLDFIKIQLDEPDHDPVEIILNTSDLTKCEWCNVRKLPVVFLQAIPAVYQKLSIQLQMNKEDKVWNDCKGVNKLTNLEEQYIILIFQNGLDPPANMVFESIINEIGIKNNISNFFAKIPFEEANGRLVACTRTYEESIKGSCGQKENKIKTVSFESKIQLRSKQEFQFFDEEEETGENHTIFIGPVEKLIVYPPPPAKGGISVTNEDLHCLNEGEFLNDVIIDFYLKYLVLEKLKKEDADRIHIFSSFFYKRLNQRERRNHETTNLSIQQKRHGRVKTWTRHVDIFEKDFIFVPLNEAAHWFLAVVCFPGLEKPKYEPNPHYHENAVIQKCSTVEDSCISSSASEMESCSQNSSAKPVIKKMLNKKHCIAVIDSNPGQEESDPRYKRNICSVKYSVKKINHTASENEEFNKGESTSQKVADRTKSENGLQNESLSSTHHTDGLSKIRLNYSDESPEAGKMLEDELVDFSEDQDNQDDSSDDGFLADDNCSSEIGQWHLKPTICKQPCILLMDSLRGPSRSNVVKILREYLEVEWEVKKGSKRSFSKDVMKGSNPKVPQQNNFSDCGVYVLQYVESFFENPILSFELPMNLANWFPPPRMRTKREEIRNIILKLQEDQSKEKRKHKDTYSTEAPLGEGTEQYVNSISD
# [18] = target: T7, Sentrin-specific protease 6; experiment: SENP6 protease inhibitors, SAR follow-up, biochemical, luminescence, set 2 (AID 588598); format: functional
# [19] = target: T6, Sentrin-specific protease 7; experiment: SENP7 protease inhibitors, SAR follow-up, biochemical, luminescence (AID 504497); format: functional
# Chain of Latent membrane protein 1 (P03230 whole entry): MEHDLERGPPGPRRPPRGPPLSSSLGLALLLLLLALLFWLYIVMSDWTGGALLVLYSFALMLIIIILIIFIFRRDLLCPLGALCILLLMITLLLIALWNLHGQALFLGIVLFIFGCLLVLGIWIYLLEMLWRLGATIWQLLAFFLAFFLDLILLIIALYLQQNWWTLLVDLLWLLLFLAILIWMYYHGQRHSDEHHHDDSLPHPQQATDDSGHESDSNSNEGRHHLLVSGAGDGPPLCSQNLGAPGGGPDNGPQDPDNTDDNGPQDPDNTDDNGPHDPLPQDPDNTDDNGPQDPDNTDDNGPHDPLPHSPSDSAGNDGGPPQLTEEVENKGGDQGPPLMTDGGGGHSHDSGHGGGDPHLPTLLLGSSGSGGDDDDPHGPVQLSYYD
# Chain of COUP transcription factor 2 (P24468 whole entry, the tested form may be a part): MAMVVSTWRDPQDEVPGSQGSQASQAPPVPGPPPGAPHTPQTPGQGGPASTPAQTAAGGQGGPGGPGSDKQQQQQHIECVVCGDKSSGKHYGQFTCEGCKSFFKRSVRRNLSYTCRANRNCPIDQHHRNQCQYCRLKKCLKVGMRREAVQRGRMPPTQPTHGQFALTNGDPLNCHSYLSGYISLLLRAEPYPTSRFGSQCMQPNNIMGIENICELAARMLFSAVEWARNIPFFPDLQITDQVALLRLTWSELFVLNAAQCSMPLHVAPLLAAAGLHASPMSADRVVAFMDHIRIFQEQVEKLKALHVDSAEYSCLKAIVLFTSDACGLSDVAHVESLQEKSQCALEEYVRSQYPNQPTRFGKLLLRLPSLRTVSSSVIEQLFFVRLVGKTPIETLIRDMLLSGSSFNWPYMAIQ
# Chain of Genome polyprotein (P29990 2492-3391 limits assumed): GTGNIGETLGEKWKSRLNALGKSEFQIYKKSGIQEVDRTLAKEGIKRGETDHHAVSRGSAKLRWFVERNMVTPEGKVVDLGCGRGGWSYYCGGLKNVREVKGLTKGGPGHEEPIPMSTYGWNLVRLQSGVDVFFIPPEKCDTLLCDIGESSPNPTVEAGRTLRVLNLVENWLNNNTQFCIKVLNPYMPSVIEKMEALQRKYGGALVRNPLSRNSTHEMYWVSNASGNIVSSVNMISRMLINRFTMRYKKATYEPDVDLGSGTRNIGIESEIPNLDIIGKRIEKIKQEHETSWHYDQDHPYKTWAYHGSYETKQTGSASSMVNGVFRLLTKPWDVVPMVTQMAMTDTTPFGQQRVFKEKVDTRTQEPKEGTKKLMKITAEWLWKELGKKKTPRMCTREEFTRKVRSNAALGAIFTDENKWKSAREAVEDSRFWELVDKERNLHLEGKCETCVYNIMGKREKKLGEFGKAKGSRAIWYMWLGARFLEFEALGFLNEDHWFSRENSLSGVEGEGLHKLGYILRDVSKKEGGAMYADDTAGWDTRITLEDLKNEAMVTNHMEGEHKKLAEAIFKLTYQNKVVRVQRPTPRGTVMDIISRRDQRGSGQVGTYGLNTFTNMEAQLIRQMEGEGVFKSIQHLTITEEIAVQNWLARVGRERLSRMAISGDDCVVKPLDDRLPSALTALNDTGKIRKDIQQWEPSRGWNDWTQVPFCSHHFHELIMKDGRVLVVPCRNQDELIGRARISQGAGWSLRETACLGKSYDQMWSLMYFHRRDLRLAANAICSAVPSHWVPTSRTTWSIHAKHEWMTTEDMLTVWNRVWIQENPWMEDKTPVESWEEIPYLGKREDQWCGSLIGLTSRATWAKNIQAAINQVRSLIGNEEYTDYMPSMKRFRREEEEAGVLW
smiles,measurement,setting,value
O=C(NC1CCCCCCC1)c1cc(COc2ccc3ncccc3c2)on1,AC50,HEK293,39.6 µM (active)
same,AC50,[1],60.1 µM (active)
same,AC50,[2],1.06 µM (active)
same,AC50,[3],2.97 µM (active)
same,AC50,[4],11.8 µM (active)
same,IC50,[5],4.41 µM (active)
C=CCOc1cccc(C2C(C(=O)c3ccc(C)o3)=C(O)C(=O)N2c2nccs2)c1 (configuration not stated),EC50,[6],> 300 µM (inconclusive)
same,EC50,[7],0.851 µM (active)
same,EC50,[8],22.3 µM (inactive)
same,EC50,[9],11.4 µM (active)
same,CC50,MEF,> 99 µM (inactive)
same,EC50,[10],44.5 µM (inactive)
same,EC50,[11],> 99 µM (inactive)
same,IC50,Genome polyprotein,5.64 µM (active)
CCCCc1ccc2nc(NC(=O)c3cc(C)cs3)sc2c1,IC50,[12],> 99 µM (inactive)
same,IC50,Caspase-3 [13],68.4 µM (active)
same,IC50,[14],8.25 µM (active)
same,IC50,Caspase-3 [15],51 µM (active)
same,IC50,[16],29.4 µM (active)
same,IC50,[17],> 99 µM (inactive)
same,IC50,[18],8.58 µM (active)
same,IC50,[19],6.4 µM (active)
